Assay [1] deals with mGluR5 (Rattus norvegicus, UniProt P31424). Nature of the assay: IC50 column under 'Biological Activity' (assay not identified in the shown text; not the binding Ki).
For assay [2], the target named is T1, rat mGluR5 receptor (Rattus norvegicus, UniProt P31424).
T1 construct: expressed in transfected cells; host or cells: HEK-293
Nature of the assay: [3H]-MPEP displacement binding assay, HEK-293 cell membranes expressing rat mGluR5. To be noted: [3H]-MPEP displacement, rat mGluR5; read-out: Median Ki. The procedure, abridged: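 Membranes from HEK-293 cells expressing rat mGluR5 (12-25 μg protein), incubated 60 min at room temperature with 4 nM [3H]-MPEP in 50 mM Tris pH 7.5, then filtered. Nonspecific binding defined with 10 μM MPEP.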

pIC50, pKi: −log10 of the molar value.

Chain of mGluR5 (P31424 21-1203): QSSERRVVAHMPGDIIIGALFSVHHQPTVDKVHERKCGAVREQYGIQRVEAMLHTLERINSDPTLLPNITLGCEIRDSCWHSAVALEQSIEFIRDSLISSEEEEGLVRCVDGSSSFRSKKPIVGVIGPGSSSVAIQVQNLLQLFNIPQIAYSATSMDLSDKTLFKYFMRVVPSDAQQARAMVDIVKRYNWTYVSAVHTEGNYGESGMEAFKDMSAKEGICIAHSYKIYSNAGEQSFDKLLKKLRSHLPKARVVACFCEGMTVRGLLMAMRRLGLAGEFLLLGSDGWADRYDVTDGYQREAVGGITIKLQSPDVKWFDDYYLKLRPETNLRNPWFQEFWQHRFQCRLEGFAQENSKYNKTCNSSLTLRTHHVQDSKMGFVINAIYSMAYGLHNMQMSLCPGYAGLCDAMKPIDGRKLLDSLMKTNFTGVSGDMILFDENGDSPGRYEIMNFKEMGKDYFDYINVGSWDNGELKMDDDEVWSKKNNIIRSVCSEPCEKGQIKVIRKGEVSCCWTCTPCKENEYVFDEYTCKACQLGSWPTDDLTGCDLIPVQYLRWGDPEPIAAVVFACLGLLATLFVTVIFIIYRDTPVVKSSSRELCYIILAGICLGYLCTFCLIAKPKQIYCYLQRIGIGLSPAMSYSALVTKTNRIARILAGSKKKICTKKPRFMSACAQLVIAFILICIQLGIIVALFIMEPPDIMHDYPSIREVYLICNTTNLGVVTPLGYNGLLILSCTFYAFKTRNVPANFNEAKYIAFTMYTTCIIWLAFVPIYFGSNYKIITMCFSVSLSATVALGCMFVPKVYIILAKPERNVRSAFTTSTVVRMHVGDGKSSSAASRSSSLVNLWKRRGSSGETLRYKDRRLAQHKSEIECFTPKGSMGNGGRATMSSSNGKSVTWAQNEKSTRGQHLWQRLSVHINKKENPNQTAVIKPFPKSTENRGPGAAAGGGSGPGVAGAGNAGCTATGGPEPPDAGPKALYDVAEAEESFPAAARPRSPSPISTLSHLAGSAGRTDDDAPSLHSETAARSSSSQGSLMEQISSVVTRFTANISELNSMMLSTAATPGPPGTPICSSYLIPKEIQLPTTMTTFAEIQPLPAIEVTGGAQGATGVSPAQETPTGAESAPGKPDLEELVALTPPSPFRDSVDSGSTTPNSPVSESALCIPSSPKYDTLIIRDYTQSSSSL
T1 sequence (P31424 21-1203): as above

Regarding `COc1ccc(C(=O)N2CCN(Cc3ccc(Cl)cc3)CC2)cc1C#Cc1ccccn1` [Compound 275, 1-(4-chlorobenzyl)-4-[4-methoxy-3-(pyridin-2-ylethynyl)benzoyl]piperazine], in assay [1], the pIC50 (usually the negative decadic logarithm of the IC50, by convention in mol/L) was 6.84. For the same compound, the pKi – broadly, the negative decadic logarithm of the Ki, by convention in mol/L – in assay [2] was 7.77.
In assay [1], `COc1ccc(C(=O)N2CCN(Cc3ccc(Cl)cc3Cl)CC2)cc1C#Cc1ccccn1` [Compound 280, 1-(2,4-dichlorobenzyl)-4-[4-methoxy-3-(pyridin-2-ylethynyl)benzoyl]piperazine] had a pIC50 of 6.50. Also, the pKi in assay [2] is 7.37.
The like results for `COc1ccc(C(=O)N2CCN(Cc3ccc(Br)cc3F)CC2)cc1C#Cc1ccccn1` [Compound 285, 1-(4-bromo-2-fluorobenzyl)-4-[4-methoxy-3-(pyridin-2-ylethynyl)benzoyl]piperazine] were, in that order, 6.49 and 8.15.
On to `COc1ccc(C(=O)N2CCN(S(=O)(=O)c3ccc4ccccc4c3)CC2)cc1C#Cc1ccccn1` [Compound 287, 1-[4-methoxy-3-(pyridin-2-ylethynyl)benzoyl]-4-(2-naphthylsulfonyl)piperazine], for which the pIC50 in assay [1] is below 3.00. Moreover, the pKi in assay [2] is 7.15.
The like results for `COc1ccc(C(=O)N2CCN(c3ccccc3)CC2)cc1C#Cc1ccccn1` [Compound 292, 1-[4-methoxy-3-(pyridin-2-ylethynyl)benzoyl]-4-phenylpiperazine] were, in that order, 6.68 and 7.85.
The like results for `COc1ccc(C(=O)N2CCN(c3ncc(C#N)c(N)n3)CC2)cc1C#Cc1ccccn1` [Compound 293, 4-Amino-2-(4-(4-methoxy-3-(pyridin-2-ylethynyl)benzoyl)piperazin-1-yl)pyrimidine-5-carbonitrile] were, in that order, below 6.00 and 7.24.
As to `COc1ccc(C(=O)N2CCN(c3ccnc(SC)n3)CC2)cc1C#Cc1ccccn1` [Compound 296, 4-{4-[4-methoxy-3-(pyridin-2-ylethynyl)benzoyl]piperazin-1-yl}-2-(methylthio)pyrimidine], in assay [1], the pIC50 was below 6.00. In addition, the pKi in assay [2] is 7.66.
As to `COc1ccc(C(=O)N2CCN(c3ncc(F)cn3)CC2)cc1C#Cc1ccccn1` [Compound 298, 5-fluoro-2-{4-[4-methoxy-3-(pyridin-2-ylethynyl)benzoyl]piperazin-1-yl}pyrimidine], the pIC50 in assay [1] was 6.99. In assay [2], the negative-log Ki (pKi) is 7.48.
The like results for `COc1cnc(N2CCN(C(=O)c3ccc(OC)c(C#Cc4ccccn4)c3)CC2)nc1` [Compound 299, 5-methoxy-2-{4-[4-methoxy-3-(pyridin-2-ylethynyl)benzoyl]piperazin-1-yl}pyrimidine] were, in that order, 6.92 and 7.60.
For `COc1ccc(C(=O)N2CCN(c3ncc(F)c(N)n3)CC2)cc1C#Cc1ccccn1` [Compound 300, 5-fluoro-2-{4-[4-methoxy-3-(pyridin-2-ylethynyl)benzoyl]piperazin-1-yl}pyrimidin-4-amine], the pIC50 in assay [1] is 6.70. Moreover, in assay [2], the pKi was 7.52.
Compound `COc1ccc(N2CCN(C(=O)c3ccc(OC)c(C#Cc4ccccn4)c3)CC2)nn1` [Compound 301, 3-methoxy-6-{4[4-methoxy-3-(pyridin-2-ylethynyl)benzoyl]piperazin-1-yl}pyridazine] had a pIC50 in assay [1] of 6.69. Also, the pKi in assay [2] is 7.08.
`COc1ccc(C(=O)N2CCN(c3nnc(Cl)cc3C)CC2)cc1C#Cc1ccccn1` [Compound 302, 6-chloro-3-{4-[4-methoxy-3-(pyridin-2-ylethynyl)benzoyl]piperazin-1-yl}-4-methylpyridazine] had a pIC50 in assay [1] below 6.00. Further, in assay [2], the pKi was 7.41.
For `COc1ccc(C(=O)N2CCN(c3ccc(Cl)nn3)CC2)cc1C#Cc1ccccn1` [Compound 303, 3-chloro-6-{4-[4-methoxy-3-(pyridin-2-ylethynyl)benzoyl]piperazin-1-yl}pyridazine], in that order: below 6.00 and 7.51.
For `COc1ccc(C(=O)N2CCN(c3nccnc3Cl)CC2)cc1C#Cc1ccccn1` [Compound 304, 2-chloro-3-{4-[4-methoxy-3-(pyridin-2-ylethynyl)benzoyl]piperazin-1-yl}pyrazine], in that order: 6.39 and 7.28.
The compound `COc1ccc(C(=O)N2CCN(c3nnc(Cl)c4ccccc34)CC2)cc1C#Cc1ccccn1` [Compound 306, 1-chloro-4-{4-[4-methoxy-3-(pyridin-2-ylethynyl)benzoyl]piperazin-1-yl}phthalazine] had a pIC50 in assay [1] of 6.45. Further, the pKi in assay [2] is 7.14.
The like results for `Cc1ccc(C(=O)N2CCN(c3noc4ccccc34)CC2)cc1C#Cc1ccccn1` [Compound 307, 3-{4-[4-Methyl-3-(pyridin-2-ylethynyl)benzoyl]piperazin-1-yl}-1,2-benzisoxazole] were, in that order, 7.30 and 9.00.
Turning to `COc1ccnc(N2CCN(C(=O)c3ccc(C)c(C#Cc4ccccn4)c3)CC2)n1` [Compound 308, 4-Methoxy-2-{4-[4-methyl-3-(pyridin-2-ylethynyl)benzoyl]piperazin-1-yl}pyrimidine], in assay [1], the pIC50 was 6.97. Further, the pKi in assay [2] is 8.10.
`Cc1ccc(C(=O)N2CCN(c3ncccn3)CC2)cc1C#Cc1ccccn1` [Compound 309, 2-{4-[4-methyl-3-(pyridin-2-ylethynyl)benzoyl]piperazin-1-yl}pyrimidine] had a pIC50 in assay [1] of 6.71. The pKi in assay [2] is 7.47.
The like results for `O=C(c1ccc(F)c(C#Cc2ccccn2)c1)N1CCN(c2ccccn2)CC1` [Compound 313, 1-[4-fluoro-3-(pyridin-2-ylethynyl)benzoyl]-4-pyridin-2-ylpiperazine] were, in that order, 7.21 and 7.64.
For `O=C(c1ccc(F)c(C#Cc2ccccn2)c1)N1CCN(c2noc3ccccc23)CC1` [Compound 316, 3-{4-[4-fluoro-3-(pyridin-2-ylethynyl)benzoyl]piperazin-1-yl}-1,2-benzisoxazole], in that order: 7.62 and 8.70.
For `COc1ccnc(N2CCN(C(=O)c3ccc(F)c(C#Cc4ccccn4)c3)CC2)n1` [Compound 317, 2-{4-[4-fluoro-3-(pyridin-2-ylethynyl)benzoyl]piperazin-1-yl}-4-methoxypyrimidine], in that order: 7.52 and 7.70.
`CCOc1ccc(C(=O)N2CCN(c3ccccn3)CC2)cc1C#Cc1ccccn1` [Compound 318, 1-[4-ethoxy-3-(pyridin-2-ylethynyl)benzoyl]-4-pyridin-2-ylpiperazine]: the pIC50 in assay [1] was 7.72. In assay [2], the pKi was 7.74.
In the case of `CCOc1ccc(C(=O)N2CCN(c3nccc(OC)n3)CC2)cc1C#Cc1ccccn1` [Compound 320, 2-{4-[4-ethoxy-3-(pyridin-2-ylethynyl)benzoyl]piperazin-1-yl}-4-methoxypyrimidine], the pIC50 in assay [1] was 7.51. For the same compound, the pKi in assay [2] was 7.70.
For `CCOc1ccc(C(=O)N2CCN(c3noc4ccccc34)CC2)cc1C#Cc1ccccn1` [Compound 322, 3-{4-[4-ethoxy-3-(pyridin-2-ylethynyl)benzoyl]piperazin-1-yl}-1,2-benzisoxazole], in that order: 7.46 and 8.22.
For `O=C(c1ccc(OCC2CC2)c(C#Cc2ccccn2)c1)N1CCN(c2noc3ccccc23)CC1` [Compound 324, 3-(4-{[4-(cyclopropylmethoxy)-3-(pyridin-2-ylethynyl)phenyl]carbonyl}piperazin-1-yl)-1,2-benzisoxazole], in that order: 7.11 and 8.30.
The like results for `COc1ccc(C(=O)N2CCN(c3ccc(Cl)cc3)C(=O)C2)cc1C#Cc1ccccn1` [Compound 326, 1-(4-Chlorophenyl)-4-{[4-methoxy-3-(pyridin-2-ylethynyl)phenyl]carbonyl}piperazin-2-one] were, in that order, 7.54 and 7.14.
`COc1ccc(C(=O)N2CCN(c3cccc(Cl)c3)C(=O)C2)cc1C#Cc1ccccn1` [Compound 327, 1-(3-chlorophenyl)-4-{[4-methoxy-3-(pyridin-2-ylethynyl)phenyl]carbonyl}piperazin-2-one] had a pIC50 in assay [1] of 7.31. Further, the pKi in assay [2] was 7.40.
For `COc1ccc(C(=O)N2CCN(c3ccccc3Cl)C(=O)C2)cc1C#Cc1ccccn1` [Compound 328, 1-(2-chlorophenyl)-4-{[4-methoxy-3-(pyridin-2-ylethynyl)phenyl]carbonyl}piperazin-2-one], in that order: 7.30 and 7.02.
In the case of `COc1ccc(C(=O)N2CCN(c3ccccc3)C(=O)C2)cc1C#Cc1ccccn1` [Compound 329, 4-{[4-methoxy-3-(pyridin-2-ylethynyl)phenyl]carbonyl}-1-phenylpiperazin-2-one], in assay [1], the pIC50 was 6.93. In addition, the pKi in assay [2] was 7.08.
For `COc1ccc(C(=O)N2CCN(Cc3ccccc3)C(=O)C2)cc1C#Cc1ccccn1` [Compound 331, 1-Benzyl-4-[4-methoxy-3-(pyridin-2-ylethynyl)benzoyl]piperazin-2-one], in that order: 7.29 and 7.21.
For `O=C(c1ccc(OC(F)(F)F)c(C#Cc2ccccn2)c1)N1CCN(c2cnccn2)CC1` [Compound 335, 2-{4-[3-(pyridin-2-ylethynyl)-4-(trifluoromethoxy)benzoyl]piperazin-1-yl}pyrazine], in that order: 6.56 and 6.75.
For `O=C(c1ccc(OC(F)(F)F)c(C#Cc2ccccn2)c1)N1CCN(c2noc3ccccc23)CC1` [Compound 338, 3-{4-[3-(pyridin-2-ylethynyl)-4-(trifluoromethoxy)benzoyl]piperazin-1-yl}-1,2-benzisoxazole], in that order: 7.80 and 9.00.
For `O=C(c1ccc(OC(F)(F)F)c(C#Cc2ccccn2)c1)N1CCN(c2ccccn2)CC1` [Compound 340, 1-Pyridin-2-yl-4-{[3-(pyridin-2-ylethynyl)-4-(trifluoromethoxy)phenyl]carbonyl}piperazine], the pIC50 in assay [1] was 8.15. Moreover, the pKi in assay [2] was 8.70.

The record behind these values is patent US20090325964A1, “Piperazine Metabotropic Glutamate Receptor 5 (MGLUR5) Negative Allosteric Modulators For Anxiety/Depression” (Wyeth, priority 2008, published 2009).
